According to ChEMBL document CHEMBL4000195, “Design and synthesis of novel 7-aminosubstituted pyrido[2,3-b]pyrazines exhibiting anti-breast cancer activity” (Eur J Med Chem, 2017):
Activity calls are given as the source filed them. The calls are words filed in the database; no cut-off is given here.

Legend:
[1] = test system: MCF7; test: Cytotoxicity against human MCF7 cells at 5 uM by MTT assay; assay type: functional
[2] = test system: T47D; test: Cytotoxicity against human T47D cells at 10 uM by MTT assay; assay type: functional
[3] = test system: HCC1954; test: Cytotoxicity against human HCC1954 cells at 10 uM by MTT assay; assay type: functional
[4] = test system: T47D; test: Cytotoxicity against human T47D cells by MTT assay; assay type: functional, cell-based
[5] = species on record: Sus scrofa; test: Inhibition of pig CK1delta/epsilon
[6] = target: Vascular endothelial growth factor receptor 2 (Homo sapiens) (UniProt P35968); test: Inhibition of recombinant human GST-tagged VEGFR-2 (789-end residues) transphosphorylation activity expressed in baculovirus infected Sf9 cells using poly[Glu:Tyr] (4:1) as substrate after 60 mins
Sequence of Vascular endothelial growth factor receptor 2 (Homo sapiens) (P35968 whole entry, the tested form may be a part, canonical isoform): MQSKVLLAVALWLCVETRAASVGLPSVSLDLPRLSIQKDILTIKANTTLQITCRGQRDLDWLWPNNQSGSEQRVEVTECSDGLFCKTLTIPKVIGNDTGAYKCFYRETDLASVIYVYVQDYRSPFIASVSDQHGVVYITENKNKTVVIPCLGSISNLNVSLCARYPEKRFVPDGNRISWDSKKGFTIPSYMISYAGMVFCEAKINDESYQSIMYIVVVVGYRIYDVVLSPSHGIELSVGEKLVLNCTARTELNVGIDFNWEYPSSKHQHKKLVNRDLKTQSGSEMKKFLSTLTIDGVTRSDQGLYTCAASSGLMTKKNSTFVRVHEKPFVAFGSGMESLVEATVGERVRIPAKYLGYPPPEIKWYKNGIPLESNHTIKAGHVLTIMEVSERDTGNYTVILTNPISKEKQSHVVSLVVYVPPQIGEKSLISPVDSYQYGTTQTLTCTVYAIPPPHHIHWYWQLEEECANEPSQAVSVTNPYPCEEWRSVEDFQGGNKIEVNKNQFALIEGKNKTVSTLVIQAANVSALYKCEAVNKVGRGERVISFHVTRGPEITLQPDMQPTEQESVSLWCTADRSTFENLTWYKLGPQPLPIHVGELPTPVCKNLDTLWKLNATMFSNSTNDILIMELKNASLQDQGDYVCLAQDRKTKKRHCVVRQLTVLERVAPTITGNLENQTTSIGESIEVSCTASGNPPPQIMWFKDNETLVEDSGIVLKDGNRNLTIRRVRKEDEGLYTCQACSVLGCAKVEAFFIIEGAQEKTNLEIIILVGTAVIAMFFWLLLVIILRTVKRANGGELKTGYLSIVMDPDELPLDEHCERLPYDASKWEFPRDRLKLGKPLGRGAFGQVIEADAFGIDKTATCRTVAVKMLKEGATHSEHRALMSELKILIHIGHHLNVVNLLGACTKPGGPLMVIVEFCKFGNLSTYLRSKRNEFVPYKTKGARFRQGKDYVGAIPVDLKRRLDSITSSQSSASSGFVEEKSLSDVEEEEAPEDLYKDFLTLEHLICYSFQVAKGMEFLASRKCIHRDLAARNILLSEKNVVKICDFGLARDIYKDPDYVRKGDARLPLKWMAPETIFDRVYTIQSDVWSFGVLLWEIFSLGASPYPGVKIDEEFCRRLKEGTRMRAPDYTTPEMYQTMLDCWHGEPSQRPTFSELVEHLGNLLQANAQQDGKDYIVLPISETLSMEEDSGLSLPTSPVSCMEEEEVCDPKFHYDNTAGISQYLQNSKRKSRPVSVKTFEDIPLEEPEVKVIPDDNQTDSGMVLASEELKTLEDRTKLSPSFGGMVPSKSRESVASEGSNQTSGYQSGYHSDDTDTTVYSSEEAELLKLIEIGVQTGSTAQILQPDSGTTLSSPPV

[7] = target: Phosphatidylinositol 4,5-bisphosphate 3-kinase catalytic subunit alpha isoform (Homo sapiens, UniProt P42336); test: Inhibition of PI3Kalpha catalytic domain (unknown origin) at 10 uM using PIP2 liposomes as substrate in presence of biotin-labeled PIP3 and GST-GRP1-PH by streptavidin-HRP based assays
Sequence of Phosphatidylinositol 4,5-bisphosphate 3-kinase catalytic subunit alpha isoform (P42336 whole entry, the tested form may be a part, canonical isoform): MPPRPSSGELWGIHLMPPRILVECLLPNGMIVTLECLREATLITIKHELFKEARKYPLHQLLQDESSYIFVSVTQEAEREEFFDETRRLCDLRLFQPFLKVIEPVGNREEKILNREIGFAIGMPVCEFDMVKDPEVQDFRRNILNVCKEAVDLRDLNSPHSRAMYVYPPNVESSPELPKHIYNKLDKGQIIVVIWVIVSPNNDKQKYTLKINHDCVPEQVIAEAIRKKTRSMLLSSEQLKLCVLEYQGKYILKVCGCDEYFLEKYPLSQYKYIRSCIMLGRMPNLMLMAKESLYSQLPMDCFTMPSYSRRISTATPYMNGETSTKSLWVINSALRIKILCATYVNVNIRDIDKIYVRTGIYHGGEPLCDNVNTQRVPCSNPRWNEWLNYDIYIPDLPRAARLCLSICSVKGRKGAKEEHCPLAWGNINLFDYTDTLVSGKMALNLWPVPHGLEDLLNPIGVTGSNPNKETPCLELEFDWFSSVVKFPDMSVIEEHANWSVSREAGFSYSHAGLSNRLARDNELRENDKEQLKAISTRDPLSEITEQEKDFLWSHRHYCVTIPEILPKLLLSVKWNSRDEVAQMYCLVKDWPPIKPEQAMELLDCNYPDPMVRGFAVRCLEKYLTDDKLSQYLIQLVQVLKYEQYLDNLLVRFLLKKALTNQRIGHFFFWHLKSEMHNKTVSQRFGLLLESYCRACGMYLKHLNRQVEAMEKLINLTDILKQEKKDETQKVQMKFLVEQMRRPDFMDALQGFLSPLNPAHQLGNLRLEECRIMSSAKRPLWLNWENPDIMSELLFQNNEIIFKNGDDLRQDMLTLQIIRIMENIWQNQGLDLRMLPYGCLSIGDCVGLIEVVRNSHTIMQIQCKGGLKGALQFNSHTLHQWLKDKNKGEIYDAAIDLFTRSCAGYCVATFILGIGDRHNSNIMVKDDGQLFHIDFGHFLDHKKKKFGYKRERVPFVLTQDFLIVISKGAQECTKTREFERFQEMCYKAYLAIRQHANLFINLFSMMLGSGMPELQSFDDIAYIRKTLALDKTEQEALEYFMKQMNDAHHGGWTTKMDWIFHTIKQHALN

[8] = Cmax in NOD/SCID mouse at 0.5 mg/kg, ip administered as single dose by LC-MS/MS method; assay type: ADME, organism-based; design: dose 0.5 mg/kg, route intraperitoneal; conditions: in vivo
[9] = Tmax in NOD/SCID mouse at 0.5 mg/kg, ip administered as single dose by LC-MS/MS method; assay type: ADME, organism-based; conditions: in vivo
[10] = AUC (0 to 8 hrs) in NOD/SCID mouse at 0.5 mg/kg, po administered as single dose by LC-MS/MS method; assay type: ADME, organism-based; design: time < 8 hr, dose 0.5 mg/kg, route oral; conditions: in vivo
[11] = Cmax in NOD/SCID mouse at 40 mg/kg, ip administered as single dose by LC-MS/MS method; assay type: ADME, organism-based; design: dose 40 mg/kg, route intraperitoneal; conditions: in vivo
[12] = Tmax in NOD/SCID mouse at 10 mg/kg, ip administered as single dose by LC-MS/MS method; assay type: ADME, organism-based; conditions: in vivo
[13] = AUC (0 to 8 hrs) in NOD/SCID mouse at 10 mg/kg, ip administered as single dose by LC-MS/MS method; assay type: ADME, organism-based; design: dose 10 mg/kg, time < 8 hr, route intraperitoneal; conditions: in vivo
[14] = AUC (0 to 24 hrs) in NOD/SCID mouse at 10 mg/kg, ip by LC-MS/MS method; assay type: ADME, organism-based; design: time < 24 hr, dose 10 mg/kg, route intraperitoneal; conditions: in vivo
[15] = Cmax in NOD/SCID mouse at 10 mg/kg, ip administered twice by LC-MS/MS method; assay type: ADME, organism-based; design: dose 10 mg/kg, route intraperitoneal; conditions: in vivo
[16] = test system: Mus musculus; test: Toxicity in NOD/SCID mouse assessed as phenotypic changes at 40 mg/kg, ip […]; assay type: organism-based; conditions: in vivo
[17] = test system: Mus musculus; test: In vivo inhibition of Akt phosphorylation at Ser473 residue in NOD/SCID mouse tumor xenografted with HER2-amplified human HCC1954 cells at 10 mg/kg, ip administered once daily for 18 days measured after 1 hr last dose; assay type: functional, organism-based
[18] = test system: Mus musculus; test: In vivo inhibition of ERK1/2 phosphorylation at Thr202/Tyr204 residue in NOD/SCID mouse tumor xenografted with HER2-amplified human HCC1954 cells at 10 mg/kg, ip administered once daily for 18 days measured after 1 hr last dose by […]; assay type: functional, organism-based
[19] = target: Receptor tyrosine-protein kinase erbB-2 (Homo sapiens) (UniProt P04626); test: Inhibition of human wild type partial length ERBB2 (K646 to V1225 residues) expressed in mammalian expression system at 10 uM by KinomeScan method relative to control
[20] = target: Focal adhesion kinase 1 (Homo sapiens) (UniProt Q05397); test: Inhibition of human wild type partial length FAK (D402 to R696 residues) expressed in bacterial expression system at 10 uM by KinomeScan method relative to control
[21] = target: Fibroblast growth factor receptor 1 (Homo sapiens) (UniProt P11362); test: Inhibition of human wild type partial length FGFR1 (P357 to V669 residues) expressed in bacterial expression system at 10 uM by KinomeScan method relative to control
[22] = target: Insulin-like growth factor 1 receptor (Homo sapiens) (UniProt P08069); test: Inhibition of human wild type partial length IGF1R (L972 to D1294 residues) expressed in bacterial expression system at 10 uM by KinomeScan method relative to control
[23] = target: Tyrosine-protein kinase ITK/TSK (Homo sapiens) (UniProt Q08881); test: Inhibition of human wild type partial length ITK (R335 to L620 residues) expressed in bacterial expression system at 10 uM by KinomeScan method relative to control
[24] = target: Tyrosine-protein kinase JAK3 (Homo sapiens) (UniProt P52333); test: Inhibition of human wild type partial length JAK3 (I781 to S1124 residues) expressed in mammalian expression system at 10 uM by KinomeScan method relative to control
[25] = target: Tyrosine-protein kinase Lck (Homo sapiens) (UniProt P06239); test: Inhibition of human wild type partial length LCK (R207 to P509 residues) expressed in bacterial expression system at 10 uM by KinomeScan method relative to control
Sequence of Tyrosine-protein kinase Lck (Homo sapiens) (P06239 2-509 limits assumed): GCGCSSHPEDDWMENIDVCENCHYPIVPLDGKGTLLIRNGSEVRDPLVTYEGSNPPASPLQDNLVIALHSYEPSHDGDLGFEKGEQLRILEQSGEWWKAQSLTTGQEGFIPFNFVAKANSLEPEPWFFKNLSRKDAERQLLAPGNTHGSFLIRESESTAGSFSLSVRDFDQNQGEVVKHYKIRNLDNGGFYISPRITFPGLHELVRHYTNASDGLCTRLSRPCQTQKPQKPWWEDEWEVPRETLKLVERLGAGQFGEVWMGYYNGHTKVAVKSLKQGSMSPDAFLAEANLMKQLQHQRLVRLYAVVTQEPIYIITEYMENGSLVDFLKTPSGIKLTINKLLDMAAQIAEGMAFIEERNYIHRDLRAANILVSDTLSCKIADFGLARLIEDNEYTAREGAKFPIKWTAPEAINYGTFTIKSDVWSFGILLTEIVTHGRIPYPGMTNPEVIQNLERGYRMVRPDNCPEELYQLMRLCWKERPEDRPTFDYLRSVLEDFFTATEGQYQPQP

[26] = target: Serine/threonine-protein kinase 4 (Homo sapiens) (UniProt Q13043); test: Inhibition of human wild type full length MST1 (M1 to F487 residues) expressed in bacterial expression system at 10 uM by KinomeScan method relative to control
Sequence of Serine/threonine-protein kinase 4 (Homo sapiens) (Q13043 whole entry, the tested form may be a part): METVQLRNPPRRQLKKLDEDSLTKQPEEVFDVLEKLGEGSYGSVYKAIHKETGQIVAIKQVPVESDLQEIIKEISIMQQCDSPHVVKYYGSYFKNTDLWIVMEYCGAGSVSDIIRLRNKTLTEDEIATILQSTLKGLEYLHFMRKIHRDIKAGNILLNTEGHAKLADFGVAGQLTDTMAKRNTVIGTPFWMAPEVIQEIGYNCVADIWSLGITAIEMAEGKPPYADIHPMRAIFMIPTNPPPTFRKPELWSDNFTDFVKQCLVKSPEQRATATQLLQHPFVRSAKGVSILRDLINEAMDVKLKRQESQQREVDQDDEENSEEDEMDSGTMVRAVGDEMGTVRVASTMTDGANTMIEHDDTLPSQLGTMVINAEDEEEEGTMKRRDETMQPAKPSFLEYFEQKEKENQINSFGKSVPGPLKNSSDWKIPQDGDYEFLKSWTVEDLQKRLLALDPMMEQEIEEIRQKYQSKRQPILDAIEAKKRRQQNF

[27] = target: Platelet-derived growth factor receptor beta (Homo sapiens) (UniProt P09619); test: Inhibition of human wild type partial length PDGFRB (V582 to Y1009 residues) expressed in bacterial expression system at 10 uM by KinomeScan method relative to control
Sequence of Platelet-derived growth factor receptor beta (Homo sapiens) (P09619 whole entry, the tested form may be a part): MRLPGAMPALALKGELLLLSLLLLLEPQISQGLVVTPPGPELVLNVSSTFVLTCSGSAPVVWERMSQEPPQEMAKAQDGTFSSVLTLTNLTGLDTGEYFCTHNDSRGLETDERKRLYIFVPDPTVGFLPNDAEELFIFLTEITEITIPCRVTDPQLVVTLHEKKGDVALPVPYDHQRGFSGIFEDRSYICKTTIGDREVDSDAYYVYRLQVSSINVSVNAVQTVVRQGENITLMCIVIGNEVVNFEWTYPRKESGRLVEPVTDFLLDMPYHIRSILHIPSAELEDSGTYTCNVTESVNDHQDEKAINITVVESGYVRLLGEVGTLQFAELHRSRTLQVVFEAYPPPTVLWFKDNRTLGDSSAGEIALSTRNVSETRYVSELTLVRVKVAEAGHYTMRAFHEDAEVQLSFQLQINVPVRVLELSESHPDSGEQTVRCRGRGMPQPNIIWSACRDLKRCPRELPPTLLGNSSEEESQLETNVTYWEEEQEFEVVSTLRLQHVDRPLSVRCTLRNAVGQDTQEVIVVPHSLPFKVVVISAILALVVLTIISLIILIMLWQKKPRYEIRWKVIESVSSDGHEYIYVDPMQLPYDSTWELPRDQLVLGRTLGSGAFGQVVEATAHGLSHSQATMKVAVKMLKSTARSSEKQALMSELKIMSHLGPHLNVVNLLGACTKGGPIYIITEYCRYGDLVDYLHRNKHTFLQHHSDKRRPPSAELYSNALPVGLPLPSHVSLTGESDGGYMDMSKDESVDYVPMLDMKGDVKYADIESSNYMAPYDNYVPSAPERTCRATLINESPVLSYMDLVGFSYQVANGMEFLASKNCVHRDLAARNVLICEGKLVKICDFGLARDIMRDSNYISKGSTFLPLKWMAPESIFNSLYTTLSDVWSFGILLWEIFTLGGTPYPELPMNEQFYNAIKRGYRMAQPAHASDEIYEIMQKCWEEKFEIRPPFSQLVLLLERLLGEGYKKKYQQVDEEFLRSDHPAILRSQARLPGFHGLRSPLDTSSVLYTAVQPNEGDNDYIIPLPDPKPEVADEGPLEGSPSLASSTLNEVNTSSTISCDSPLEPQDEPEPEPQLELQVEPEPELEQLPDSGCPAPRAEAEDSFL

[28] = target: Proto-oncogene tyrosine-protein kinase Src (Homo sapiens) (UniProt P12931); test: Inhibition of human wild type partial length SRC (L240 to L536 residues) expressed in bacterial expression system at 10 uM by KinomeScan method relative to control
Sequence of Proto-oncogene tyrosine-protein kinase Src (Homo sapiens) (P12931 2-536 limits assumed): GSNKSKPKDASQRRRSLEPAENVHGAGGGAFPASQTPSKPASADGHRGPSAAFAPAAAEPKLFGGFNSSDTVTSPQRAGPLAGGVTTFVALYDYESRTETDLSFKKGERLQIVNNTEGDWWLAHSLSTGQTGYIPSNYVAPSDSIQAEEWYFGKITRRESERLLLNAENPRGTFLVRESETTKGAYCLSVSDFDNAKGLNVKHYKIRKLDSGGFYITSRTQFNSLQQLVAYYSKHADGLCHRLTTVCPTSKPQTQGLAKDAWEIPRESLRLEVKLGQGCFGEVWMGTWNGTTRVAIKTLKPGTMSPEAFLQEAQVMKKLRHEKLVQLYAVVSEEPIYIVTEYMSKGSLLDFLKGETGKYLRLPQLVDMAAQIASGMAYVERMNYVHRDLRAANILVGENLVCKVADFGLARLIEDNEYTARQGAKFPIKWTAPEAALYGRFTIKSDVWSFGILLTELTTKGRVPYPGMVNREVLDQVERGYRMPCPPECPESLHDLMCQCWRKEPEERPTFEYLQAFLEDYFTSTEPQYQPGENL

[29] = target: Vascular endothelial growth factor receptor 2 (Homo sapiens) (UniProt P35968); test: Inhibition of human wild type partial length VEGFR2 (R787 to P1253 residues) expressed in mammalian expression system at 10 uM by KinomeScan method relative to control
[30] = test system: Mus musculus; test: In vivo inhibition of Akt phosphorylation at ser-473 residue in NOD/SCID mouse tumor xenografted with HER2-amplified human HCC1954 cells at 10 mg/kg, ip administered once daily for 18 days measured after 1 hr last dose by […]; assay type: functional, organism-based
[31] = test system: Mus musculus; test: In vivo inhibition of SRC phosphorylation at Tyr-416 residue in NOD/SCID mouse tumor xenografted with HER2-amplified human HCC1954 cells at 10 mg/kg, ip administered once daily for 18 days measured after 1 hr last dose by […]; assay type: functional, organism-based

inhibition [5]: inactive
inhibition [6]: inactive
inhibition [7]: Active
Cmax [8]: 0.82 µM
Tmax [9]: 0.5 h
AUC(0-t) at 8 h [10]: 1.53 µM·h
Cmax [11]: 18.7 µM
Tmax [12]: 2 h
AUC(0-t) at 8 h [13]: 19.9 µM·h
AUC(0-t) at 24 h [14]: 39.1 µM·h
Cmax [15]: 6.45 µM
inhibition [19]: 0%
inhibition [20]: 0%
inhibition [21]: 18%
inhibition [22]: 6%
inhibition [23]: 5%
inhibition [24]: 0%
inhibition [25]: 2%
inhibition [26]: 0%
inhibition [27]: 0%
inhibition [28]: 3%
inhibition [29]: 1%
Compound: Cc1nc2nc(Sc3ccccc3)cnc2cc1NC(=O)Nc1ccccc1
Activity [1]: >50%
Activity [2]: >50%
Activity [3]: >50%
IC50 [4]: 5.7 µM
Activity [16]: Toxic
inhibition [17]: Active
inhibition [18]: Active
inhibition [30]: Active
inhibition [31]: Active
